In brackets after ≈: the same amount, converted by molar mass. Where a name gives a salt, the structure may show the parent alone. Read-outs that look alike come from different tables or passages of the source. Each block holds one molecule with its values, some of them ahead of it.
How the values were obtained:
[1] = Liver microsome stability, Human LM-P1 / HLM; type: in vitro ADME; conditions: for half-life / microsomal CLint: human, liver microsomes; for microsomal CLint: read-out: Human LM-P1 CL; for CLint scaled: Table 3A, human liver microsomes, read-out: CL HLM
Excerpt: Metabolic stability of compound (II) (labeled as CRL241 below) in vitro has been tested in a standard in vitro microsomal stability assay in human microsomes (Cerep Study 13170).

[2] = Liver microsome stability, Rat LM-P1; type: in vitro ADME; conditions: liver microsomes; for microsomal CLint: read-out: Rat LM-P1 CL
[3] = Liver microsome stability, Mouse LM-P1 / MLM; type: in vitro ADME; conditions: for half-life / microsomal CLint: mouse, liver microsomes; for microsomal CLint: read-out: Mouse LM-P1 CL; for CLint scaled: Table 3A, mouse liver microsomes, read-out: CL MLM
ALK = ALK (Homo sapiens, UniProt Q9UM73); experiment: ALK kinase assay (Kinase-Glo / AlphaScreen, purified NPM-ALK); type: biochemical; design: fused to the complete intracytoplasmic portion of ALK containing the functional tyrosine kinase domain; 6xHis; made in house; host or cells: insect cells; the other entry of the earlier key: NPM1 (P06748, Nucleophosmin);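 further: recombinant baculovirus-expressed ALK kinase domain, activity read either as leftover ATP by Kinase-Glo luminescence or as poly(Glu-Tyr) phosphorylation by anti-phosphotyrosine AlphaScreen proximity signal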
ALK, sequence (Q9UM73 with tags, fused parts or gaps): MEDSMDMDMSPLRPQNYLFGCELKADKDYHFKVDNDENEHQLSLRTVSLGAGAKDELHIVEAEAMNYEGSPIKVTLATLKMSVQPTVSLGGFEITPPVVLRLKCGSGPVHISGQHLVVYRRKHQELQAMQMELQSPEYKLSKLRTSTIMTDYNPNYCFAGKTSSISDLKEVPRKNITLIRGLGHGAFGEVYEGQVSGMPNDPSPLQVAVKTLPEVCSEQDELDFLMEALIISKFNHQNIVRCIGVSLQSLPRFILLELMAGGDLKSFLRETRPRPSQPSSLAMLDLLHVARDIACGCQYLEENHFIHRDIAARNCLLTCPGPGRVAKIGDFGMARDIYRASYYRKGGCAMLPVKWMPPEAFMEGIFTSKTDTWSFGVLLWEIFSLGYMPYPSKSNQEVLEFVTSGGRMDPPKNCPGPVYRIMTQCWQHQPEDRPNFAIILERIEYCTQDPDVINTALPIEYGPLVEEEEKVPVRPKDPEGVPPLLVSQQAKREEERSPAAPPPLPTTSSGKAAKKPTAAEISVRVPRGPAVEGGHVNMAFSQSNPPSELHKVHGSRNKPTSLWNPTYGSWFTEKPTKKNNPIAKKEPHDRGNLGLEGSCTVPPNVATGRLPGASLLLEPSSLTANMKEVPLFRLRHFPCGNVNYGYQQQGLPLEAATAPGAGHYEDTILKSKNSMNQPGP

A549 cells [4] = experiment: Prolonged inflammation (PMA induced MMP-1 or IL-8) in A549 cells; type: cell-based; conditions: FIG. 17
Excerpt: Panel 3: All the above were done on the transcriptional level (i.e., MMP-1, IL-8, etc. expressions). For IL-8, this was verified on the translational (i.e., protein expression) level as well.

[5] = Aqueous Solubility (PBS, pH 7.4); type: physicochemical; conditions: pH 7.4, 2.0E−04 M; for solubility: pH 7.4, PBS
[6] = Partition Coefficient (Log D, n-octanol/PBS, pH 7.4); type: physicochemical; conditions: 1.0E−04 M; for logD: read-out: Partition Coefficient Log D, Weighed Average of Three Replicates
IL-8 in A549 cells = experiment: PMA-induced IL-8 levels in A549 cells, with or without RU-486; type: cell-based; conditions: 4 hr treatments
PC12 cells = experiment: NGF-stimulated neurite outgrowth in PC12 cells; type: cell-based; conditions: 100 nM compound, NGF 100 ng/ml, 6 days
Method: In chronic pain states, neurons form outgrowths which sensitize them to pain. NGF-induced neurite outgrowth was used as an assay for TrkA-dependent chronic/neuropathic pain activity.
Methods: PC12 cells were grown in 2% FBS and treated with or without NGF (100 ng/ml) 30 min before adding of vehicle or TRKA compounds for 6 days, changing media on day 3. On day 6 cells were fixed and stained for SRB before photographed for neurite outgrowth.

MMP-1 in A549 cells = experiment: PMA induced MMP-1 production in A549 cells; type: cell-based; conditions: one hour treatment
FKBP51 (GR pathway) = experiment: GR specific anti-inflammatory marker FKBP51 in A549 cells; type: cell-based
PC-12 cells = experiment: PC-12 cell cytotoxicity; type: cell-based; conditions: FIG. 13
RET = RET (Homo sapiens, UniProt P07949); experiment: RET cell free kinase assay (Table 3A); type: biochemical
RET, sequence (P07949 29-1114): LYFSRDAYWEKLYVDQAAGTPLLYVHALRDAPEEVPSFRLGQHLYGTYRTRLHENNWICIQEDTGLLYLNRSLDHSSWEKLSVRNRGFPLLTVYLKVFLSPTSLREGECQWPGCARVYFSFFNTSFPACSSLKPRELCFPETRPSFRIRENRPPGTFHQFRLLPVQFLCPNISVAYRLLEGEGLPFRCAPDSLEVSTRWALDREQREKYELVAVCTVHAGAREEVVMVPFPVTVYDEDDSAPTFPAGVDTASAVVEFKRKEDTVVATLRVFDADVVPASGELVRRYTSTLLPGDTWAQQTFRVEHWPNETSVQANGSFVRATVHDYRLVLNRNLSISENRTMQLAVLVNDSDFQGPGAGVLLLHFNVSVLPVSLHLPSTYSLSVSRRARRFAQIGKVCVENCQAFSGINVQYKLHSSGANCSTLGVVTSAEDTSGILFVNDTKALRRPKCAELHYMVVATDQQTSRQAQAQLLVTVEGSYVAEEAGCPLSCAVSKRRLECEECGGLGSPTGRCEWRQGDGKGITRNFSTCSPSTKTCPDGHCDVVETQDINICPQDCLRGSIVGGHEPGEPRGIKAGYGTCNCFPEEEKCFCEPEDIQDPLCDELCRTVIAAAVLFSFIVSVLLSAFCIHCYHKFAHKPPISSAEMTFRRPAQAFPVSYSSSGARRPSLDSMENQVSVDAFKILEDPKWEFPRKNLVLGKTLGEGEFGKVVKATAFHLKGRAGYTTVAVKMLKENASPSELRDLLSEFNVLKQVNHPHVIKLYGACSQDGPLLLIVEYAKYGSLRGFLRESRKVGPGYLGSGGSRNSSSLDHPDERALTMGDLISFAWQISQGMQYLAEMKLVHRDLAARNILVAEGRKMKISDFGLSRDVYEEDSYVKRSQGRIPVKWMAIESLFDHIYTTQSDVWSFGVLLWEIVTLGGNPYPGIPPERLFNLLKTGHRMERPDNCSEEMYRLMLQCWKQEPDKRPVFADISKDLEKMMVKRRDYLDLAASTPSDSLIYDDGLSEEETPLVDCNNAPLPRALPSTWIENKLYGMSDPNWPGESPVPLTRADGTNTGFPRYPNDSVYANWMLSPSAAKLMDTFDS

SUDHL-1 = experiment: Cellular IC50, SUDHL-1; type: cell-based; conditions: Homo sapiens, SU-DHL-1; Table 3A
Excerpt: (§1) Cell proliferation inhibition assays were run for compound (II) with the five target NPM-ALK-dependent ALCL cell lines (Karpas 299, SuDHL-1, JB6, SupM2, UConn) and 12 unrelated cell lines (HEK293, CHO-K1, MCF7, HepG2, H292, H520, H1581, H596, H522, CHA-GO-K1, UMC-11, SK-MES1). […] The pronounced target cell-killing effect is also observed (molecular mechanisms to be determined).

U937 = experiment: Cellular IC50, U937; type: cell-based; conditions: Homo sapiens, U-937; Table 3A
IRK = biological target: T1, IRK (Homo sapiens, UniProt P06213); experiment: IRK (insulin receptor kinase) assay; type: biochemical; conditions: Table 3A; read-out: Cell Free IC50 IRK
T1 construct: 6×His- or GST-tagged kinase domain fragments of the corresponding RTKs expressed in baculovirus system; host or cells: baculovirus system
T1 sequence (P06213 1023-1298 limits assumed): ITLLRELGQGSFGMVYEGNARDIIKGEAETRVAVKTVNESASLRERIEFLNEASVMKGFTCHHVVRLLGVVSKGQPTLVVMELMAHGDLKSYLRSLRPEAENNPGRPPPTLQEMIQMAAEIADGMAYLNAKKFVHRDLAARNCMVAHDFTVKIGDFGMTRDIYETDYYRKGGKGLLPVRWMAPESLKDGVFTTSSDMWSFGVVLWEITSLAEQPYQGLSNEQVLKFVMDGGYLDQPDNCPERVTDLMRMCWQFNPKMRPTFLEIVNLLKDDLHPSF
Procedure, shortened: (§2)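 The AlphaScreen PT66 format of the NPM-ALK assay was applied with minor modifications to commercial recombinant His/GST-tagged kinase domains. Compound (0.078125–40 μM) was incubated 30 min at RT with 10 μM ATP and biotinylated poly-GT in Tris pH 7.5/MgCl2/MnCl2/DTT buffer, then beads 60 min. Read at 520–680 nm; IC50 and Ki derived.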

TRKA = TRKA (Homo sapiens, UniProt P04629); experiment: TRKA kinase assay; type: biochemical; design: 6×His- or GST-tagged kinase domain fragments of the corresponding RTKs expressed in baculovirus system; host or cells: baculovirus system; conditions: Table 3A; read-out: Cell Free IC50 TRKA
TRKA, sequence (P04629 510-781 limits assumed): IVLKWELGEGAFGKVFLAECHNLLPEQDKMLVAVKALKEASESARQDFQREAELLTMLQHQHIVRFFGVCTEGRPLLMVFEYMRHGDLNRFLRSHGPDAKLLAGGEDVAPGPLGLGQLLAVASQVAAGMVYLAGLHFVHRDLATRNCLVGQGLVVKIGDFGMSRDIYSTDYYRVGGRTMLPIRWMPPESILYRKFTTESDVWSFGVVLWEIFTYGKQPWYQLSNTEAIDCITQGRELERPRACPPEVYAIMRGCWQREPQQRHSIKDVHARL

Karpas299 = experiment: Cell proliferation inhibition, ALCL line Karpas299; type: cell-based; conditions: Homo sapiens, KARPAS-299; Table 3A; read-out: Cellular IC50 K-299
Excerpt: The IL-3-dependent lymphoid cell line BaF3 or BaF3 rendered IL-3-independent by engineered expression of NPM-ALK were used in parallel to test each candidate inhibitor. Control wells contained DMSO solvent without test compound. Specific inhibition of ALK signaling is indicated in the assay by impairment of NPM-ALK-expressing BaF3 cell growth without alterations in the growth of parental BaF3. This colorimetric assay of cell proliferation and viability is based upon reduction of the yellow monotetrazolium salt XTT to a water-soluble orange formazan dye, a reaction catalyzed by mitochondrial dehydrogenases in living cells only (Cell Proliferation Kit II, Cat. #1 465 015, Roche Biochemicals). In addition to testing compounds for their ability to impair the growth of BaF3 cells engineered to express NPM-ALK, the NPM-ALK-positive human lymphoma cell line Karpas-299 (Deutsche Sammlung von Mikroorganismen and Zellkulturen GmbH (DSMZ) no. ACC 31), the human BCR-ABL-positive chronic myeloid leukemia cell line K562 (American Type Culture Collection (ATCC) no. CCL-243), and the human T-cell leukemia line Jurkat (DSMZ no. ACC 282) were tested in these assays.
Each compound stock in 100% DMSO was first diluted using 8% DMSO/culture medium to produce a working stock of 250 μM compound. This working stock was then used to perform serial 1:1 dilutions (i.e., 125 μM, 62.5 μM, 31.25 μM, 15.625 μM, 7.8125 μM, and 3.90625 μM) using DMSO-free culture medium. Twenty (20) μL of each of these dilutions was then added to the cells (2×10^4 cells in 80 μL culture medium per 96-well) to obtain the final test compound concentrations (i.e., 25 μM, 12.5 μM, 6.25 μM, 3.125 μM, 1.5625 μM, and 0.78125 μM).
as §1

A549 cells [7] = experiment: TNFα-induced acute inflammation in A549 cells; type: cell-based; conditions: 100 nM Dex or 1 μM compound (VI)
[8] = Caco-2, pH 6.5
[9] = Caco-2 (TC7) A-B Permeability test (pH 6.5/7.4); conditions: A-B Permeability (TC7, pH 6.5/7.4), test concentration 1.0E−05 M
IGF1R = biological target: T2, IGF1R (Homo sapiens, UniProt P08069); experiment: IGF1R kinase assay; type: biochemical; conditions: Table 3A; read-out: Cell Free IC50 IGF1R
T2 construct: 6×His- or GST-tagged kinase domain fragments of the corresponding RTKs expressed in baculovirus system; host or cells: baculovirus system
T2 sequence (P08069 999-1274 limits assumed): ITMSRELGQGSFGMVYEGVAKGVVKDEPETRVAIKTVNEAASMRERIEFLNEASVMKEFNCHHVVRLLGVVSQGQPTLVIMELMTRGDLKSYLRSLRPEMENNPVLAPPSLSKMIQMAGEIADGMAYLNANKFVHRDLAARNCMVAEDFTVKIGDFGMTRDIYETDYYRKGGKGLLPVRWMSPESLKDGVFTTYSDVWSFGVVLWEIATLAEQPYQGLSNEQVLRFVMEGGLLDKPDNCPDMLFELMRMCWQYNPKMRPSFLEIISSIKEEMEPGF
Procedure, shortened: as §2

[10] = Table 8D, read-out: GTx-ALK IC50
[11] = Tables 9C, 9D, read-out: Solubility Mean
[12] = individual data, read-out: Solubility 1st/2nd

half-life [1]: > 120 min
microsomal CLint [1]: < 5.8 µL/min/mg
half-life [2]: 4.36 min
microsomal CLint [2]: 159 µL/min/mg
half-life [3]: 29 min
microsomal CLint [3]: 23.9 µL/min/mg
IC50 (ALK; [10]): 3 nM
SMILES: C[C@@H](Cc1c(F)c(F)cc(F)c1F)Nc1cc[nH]c(=O)c1-c1nc2cc3c(cc2[nH]1)CN(CCN1CCCC1)C3=O [drawing 370]

IC50 (RET): 4 nM
CLint scaled [1]: < 5.8 mL/min/kg
CLint scaled [3]: 82.2 mL/min/kg
IC50 (SUDHL-1): 102 nM
IC50 (U937): > 3000 nM
SMILES: C[C@@H](Cc1c(F)c(F)cc(F)c1F)Nc1cc[nH]c(=O)c1-c1nc2cc3c(cc2[nH]1)CN(CCN(C)C)C3=O

Solubility 1st/2nd ([5]; individual data): 8.59 μm
solubility [5, 11]: 8.6 µM (≈ 2.31 µg/mL)
solubility [5, 12]: 8.6 µM (≈ 2.31 µg/mL)
logD [6]: > 5
SMILES: CC/C(=C(/CC)c1ccc(O)cc1)c1ccc(O)cc1 [Diethylstilbestrol]

Partition Coefficient Log D, Weighed Average of Three Replicates [6]: 2.34
SMILES: O=C1NC(=O)C(c2ccccc2)(c2ccccc2)N1 [Phenytion]

half-life [1]: > 120 min
microsomal CLint [1]: < 5.8 µL/min/mg
half-life [2]: 5 min
microsomal CLint [2]: 138 µL/min/mg
half-life [3]: 22.1 min
microsomal CLint [3]: 31.4 µL/min/mg
IC50 (ALK; [10]): 5 nM
SMILES: C[C@@H](Cc1cc(F)cc(F)c1F)Nc1cc[nH]c(=O)c1-c1nc2cc3c(cc2[nH]1)CN(CCN1CCCC1)C3=O [drawing 369]

CLint scaled [1]: < 5.8 mL/min/kg
IC50 (IRK): 526 nM
CLint scaled [3]: 46 mL/min/kg
IC50 (TRKA): 3 nM
IC50 (SUDHL-1): 30 nM
IC50 (U937): > 3000 nM
IC50 (IGF1R): 455 nM
IC50 (Karpas299): 155 nM
SMILES: Cc1ccc(F)cc1C[C@H](C)Nc1cc[nH]c(=O)c1-c1nc2cc3c(cc2[nH]1)CN(CCN(C)C)C3=O [drawing 361]

Further lines, the molecule ahead of its results:

SMILES: COC(=O)[C@@]1(O)C[C@H]2O[C@]1(C)n1c3ccccc3c3c4c(c5c6ccccc6n2c5c31)C(=O)NC4 [K252a, reference compound]
Anti-inflammatory effect on prolonged inflammation (PMA induced MMP-1 or IL-8) (A549 cells [4]): demonstrated anti-inflammatory activity which was not reversible by GR antagonist

SMILES: COCCc1ccc(OCC(O)CNC(C)C)cc1 (centres unmarked) [Metoprolol tartrate]
Solubility 1st/2nd ([5]; individual data): 188.93 μm
solubility [5, 11]: 190 µM
solubility [5, 12]: 190 µM
logD [6]: -0.46

SMILES: C[C@@H](Cc1c(F)c(F)cc(F)c1F)Nc1cc[nH]c(=O)c1-c1nc2cc3c(cc2[nH]1)CN(CCN1CCCC1)C3=O [compound (III)]
Effect of GR antagonist RU-486 on inhibition of PMA-induced IL-8 levels (IL-8 in A549 cells): not affected or possibly were more potent
NGF-stimulated neurite outgrowth (PC12 cells): inhibited the neurite outgrowth
Concentration required for complete inhibition of PMA induced MMP-1 production (MMP-1 in A549 cells): ~1 µM
Activation of GR pathway (FKBP51 marker) (FKBP51 (GR pathway)): did not active the GR pathway
PC-12 cell cytotoxicity (PC-12 cells): lack of PC-12 cell cytotoxicity

SMILES: CO[C@H]1/C=C/O[C@@]2(C)Oc3c(C)c(O)c4c(O)c(c(/C=N/N5CCN(C)CC5)c(O)c4c3C2=O)NC(=O)/C(C)=C\C=C\[C@H](C)[C@H](O)[C@@H](C)[C@@H](O)[C@@H](C)[C@H](OC(C)=O)[C@@H]1C [Rifampicin]
Solubility 1st/2nd ([5]; individual data): 186.51 μm
solubility [5, 11]: 184 µM (≈ 151 µg/mL)
solubility [5, 12]: 181 µM (≈ 149 µg/mL)
logD [6]: 1.23

SMILES: C[C@@H](Cc1cc(F)cc(F)c1F)Nc1cc[nH]c(=O)c1-c1nc2cc3c(cc2[nH]1)CN(CCN1CCCC1)C3=O [compound (VII)]
NGF-stimulated neurite outgrowth (PC12 cells): inhibited the neurite outgrowth
PC-12 cell cytotoxicity (PC-12 cells): lack of PC-12 cell cytotoxicity

SMILES: Cc1ccc(F)cc1C[C@H](C)Nc1cc[nH]c(=O)c1-c1nc2cc3c(cc2[nH]1)C(=O)N(CCN1CCCC1)C3 [drawing 360]
CLint scaled [1]: < 5.8 mL/min/kg
IC50 (IRK): 254 nM
CLint scaled [3]: 52.9 mL/min/kg
IC50 (TRKA): 2 nM
IC50 (U937): > 3000 nM
IC50 (ALK; Table 3A, read-out: Cell Free IC50 ALK): 2 nM
IC50 (Karpas299): 81 nM

SMILES: C[C@@H]1C[C@H]2[C@@H]3CCC4=CC(=O)C=C[C@]4(C)[C@@]3(F)[C@@H](O)C[C@]2(C)[C@@]1(O)C(=O)CO [dexamethasone, reference compound]
Effect of GR antagonist RU-486 on inhibition of PMA-induced IL-8 levels (IL-8 in A549 cells): reversible by GR antagonist RU-486
Inhibition of PMA induced MMP-1 production (MMP-1 in A549 cells): potently inhibit PMA induced MMP-1 production in the nM range
TNFα-induced acute inflammation (A549 cells [7]): partially reversible

SMILES: CC[C@]1(O)C[C@@H]2CN(CCc3c([nH]c4ccccc34)[C@@](C(=O)OC)(c3cc4c(cc3OC)N(C)[C@H]3[C@@](O)(C(=O)OC)[C@H](OC(C)=O)[C@]5(CC)C=CCN6CC[C@]43[C@@H]65)C2)C1 [vinblastin]
Mean Permeability [8]: 0.0 10^−6 cm/s
Permeability 1st [8]: 0.82 10^−6 cm/s
Permeability 2nd [8]: 0.02 10^−6 cm/s
Present Recovery 1st ([9]; 1st replicate): 73%
Present Recovery 2nd ([9]; 2nd replicate): 57%
Mean Recovery ([9]; mean of n = 2): 65%

SMILES: Cc1ccc(F)cc1C[C@H](C)Nc1cc[nH]c(=O)c1-c1nc2cc3c(cc2[nH]1)C(=O)N(CCN1CCCC1)C3 [drawing 368]
half-life [1]: > 20 min
microsomal CLint [1]: < 5.8 µL/min/mg
half-life [2]: 8.71 min
microsomal CLint [2]: 79.6 µL/min/mg
half-life [3]: 13.1 min
microsomal CLint [3]: 52.9 µL/min/mg
IC50 (ALK; [10]): 2 nM
